Measured values: US20160101148A1, “TREATMENT AND PREVENTION OF BACTERIAL SKIN INFECTIONS USING ORITAVANCIN” (priority 2013, published 2016)

Experiments:
[1] = SOLO II Phase 3 trial, safety; format: in vivo, human; conditions: for Patients reported to experience at least one adverse event: up to 60 days after treatment
Excerpt: Safety profiles, measured at any point up to 60 days after treatment, were similar across treatment groups in SOLO II.

[2] = tested on: ABSSSI suspected or proven to be due to a gram-positive pathogen, including MRSA; assay: SOLO I Phase 3 trial, efficacy: single dose IV oritavancin versus IV vancomycin for 7 to 10 days; format: in vivo, human; conditions: for Difference in lesion size reduction ≧20% rate (oritavancin minus vancomycin) / Difference in primary efficacy endpoint rate (oritavancin minus vancomycin): ECE; for Lesion Size Reduction ≧20% From Baseline / Primary efficacy endpoint response rate (cessation of spread, absence of fever, no rescue antibiotics): ECE 48 to 72 hours; for Difference in investigator-assessed clinical cure rate (oritavancin minus vancomycin) / Difference in sustained clinical cure rate (oritavancin minus vancomycin): PTE; for Investigator-Assessed Clinical Cure / Sustained Clinical Cure: PTE 7 to 14 days after EOT
Protocol: The primary efficacy endpoint comprised: 1) cessation of spreading or reduction in the size of the baseline lesion, 2) absence of fever, and 3) no rescue antibiotic, at 48 to 72 hours, for the modified intent to treat population.
The study design was consistent with current guidelines from FDA (U.S. Food and Drug Administration. Guidance for Industry Acute Bacterial Skin and Skin Structure Infections: Developing Drugs for Treatment (DRAFT GUIDANCE). Available via Internet at the URL containing: fda.gov/downloads/Drugs/GuidanceComplianceRegulatoryInformation/Guidances/ucm071185.p df) and EMA (European Medicines Agency Committee for Medicinal Products for Human Use. Addendum to the note for guidance on evaluation of medicinal products indicated for treatment of bacterial infections (CHMP/EWP/558/95 REV 2) to address indication-specific clinical data (draft). 2012. Available via Internet at the URL containing: ema.europa.eu/docs/en_GB/document_library/Scientific_guideline/2012/07/WC500129443.pdf) and Foundation for National Institutes of Health guidance was considered for analyses (Talbot G H etl. Clin Infect Dis. 2012. 55(8):1114-1121). The protocol was approved by institutional review boards/ethics committees and all patients provided written informed consent. The study was conducted from January 2011 through October 2012 at 46 study centers in Mexico, Spain, Germany, Romania, Russia, Ukraine, Israel, India, and the United States. […] Aztreonam and metronidazole were permitted for gram-negative and anaerobic cover, respectively.
Clinical evaluations were performed at the following time points: Early Clinical Evaluation (ECE) at 48 to 72 hours after the initiation of the study drug infusion, End of Therapy (EOT) at Day 7 to Day 10 or the day the patient stopped study drug or changed to non-study drug therapy for primary ABSSSI, Day 10 Evaluation defined as 10 days after the initiation of the study drug infusion, Post Therapy Evaluation (PTE) at 7 to 14 days after the EOT visit, and Safety Follow-up at 60 days (+7 days) after the initiation of the study drug infusion. Safety data was reviewed by a data monitoring committee.
Eligible patients were to be at least 18 years of age with diagnosis of ABSSSI that was suspected or proven to be due to a gram-positive pathogen and which required at least 7 days of IV therapy. The diagnosis of ABSSSI was defined as wound infections (either traumatic or surgical in origin), cellulitis/erysipelas or major cutaneous abscess with surrounding erythema, edema, and/or induration of at least 75 cm^2. The onset of wound infections or cellulitis/erysipelas must have occurred within 7 days prior to randomization. Patients also had to present with signs and symptoms of systemic inflammation. Patients were not eligible to participate if they received systemic or topical antibacterial therapy with gram-positive activity within the preceding 14 days.
The primary efficacy endpoint was a composite outcome of 1) cessation of spreading or reduction in the size of the baseline lesion, 2) absence of fever, and 3) no rescue antibiotic medication at the ECE visit, for the mITT population.
The secondary efficacy outcomes were as follows: 1) Lesion area decrease by ≧20% from Baseline at ECE, 2) Investigator-Assessed Clinical Response at PTE, 3) Sustained Clinical Response at PTE.
The analyses were performed for patients who had lesion area assessments at baseline and ECE using the mITT and CE populations.
If a patient had clinical failure assessed beyond the PTE visit window, the patient was considered as a clinical failure. If a patient had clinical success assessed beyond the PTE visit window, a) and if the patient had clinical failure before the PTE visit, the patient was considered a clinical failure at PTE or b) if the patient had clinical success also before the PTE visit, the patient was considered a clinical success at PTE.

[3] = Predicted free peak and free trough levels in plasma; format: in vivo; conditions: non-protein bound drug, representative human dose: oritavancin 1200 mg, vancomycin 1000 mg, daptomycin 4 mg/kg, linezolid 500 mg
Protocol: ORI concentrations were chosen to approximate free peak (fCmax; defined as the peak concentration of non-protein bound drug) and free trough (fCmin; defined for ORI as the concentration of non-protein bound drug at 24 h) levels in plasma following administration of a 1200 mg dose (Belley et al., 2013 Table 10). ORI protein binding is estimated at approximately 85% in serum from nonclinical species and humans (Arhin et al., 2010). Doubling dilution concentrations of comparator agents were likewise chosen to approximate their fCmax and fCmin levels in plasma when administered at approved dosages for complicated skin and skin structure infections, using pharmacokinetic data and protein binding values from their respective package inserts (DAP [Cubicin®]; LZD [Zyvox®]; VAN [Vancocin®]; Table 3).

Q: With CN[C@H](CC(C)C)C(=O)N[C@H]1C(=O)N[C@@H](CC(N)=O)C(=O)N[C@H]2C(=O)N[C@H]3C(=O)N[C@H](C(=O)N[C@H](C(=O)O)c4cc(O)cc(O)c4-c4cc3ccc4O)[C@H](O[C@H]3C[C@](C)(N)[C@@H](O)[C@H](C)O3)c3ccc(c(Cl)c3)Oc3cc2cc(c3O[C@@H]2O[C@H](CO)[C@@H](O)[C@H](O)[C@H]2O[C@H]2C[C@](C)(NCc3ccc(-c4ccc(Cl)cc4)cc3)[C@@H](O)[C@H](C)O2)Oc2ccc(cc2Cl)[C@H]1O [Oritavancin, N^DISACC-(4-(4-chlorophenyl)benzyl)A82846B] as the compound, how does the “Treatment emergent adverse events considered by investigators as related to study drug” value [1] read?
A: The value was 21.7%.

Q: And the “Patients reported to experience at least one adverse event” value [1]?
A: Its value is 50.9%.

Q: What about the “Efficacy versus vancomycin for ECE and PTE endpoints” value ([2]; 10% non-inferiority margin) of the same compound?
A: The value was “non-inferior to vancomycin”.

Q: And the “Patients both early treatment responders (lesion size reduction of ≧20% at ECE) and clinical successes at PTE” value ([2]; CE population)?
A: The value was “more than 84%”.

Q: And the “Difference in lesion size reduction ≧20% rate (oritavancin minus vancomycin)” value ([2]; CE)?
A: The value was 1.9%.

Q: What about the “Difference in primary efficacy endpoint rate (oritavancin minus vancomycin)” value ([2]; CE) of the same compound?
A: The value was 1.2%.

Q: And the “Lesion Size Reduction ≧20% From Baseline” value ([2]; CE)?
A: The value was 90.6%.

Q: What about the “Primary efficacy endpoint response rate (cessation of spread, absence of fever, no rescue antibiotics)” value ([2]; CE) of the same compound?
A: The value was 87.3%.

Q: And the “Difference in investigator-assessed clinical cure rate (oritavancin minus vancomycin)” value ([2]; CE)?
A: The value was −1.3%.

Q: And the “Difference in sustained clinical cure rate (oritavancin minus vancomycin)” value ([2]; CE)?
A: The value was −3.9%.

Q: What about the “Investigator-Assessed Clinical Cure” value ([2]; CE) of the same compound?
A: The value was 91.9%.

Q: And the “Sustained Clinical Cure” value ([2]; CE)?
A: The value was 79.4%.

Q: And the “Difference in lesion size reduction ≧20% rate (oritavancin minus vancomycin)” value ([2]; MRSA MicroE)?
A: Its value is 7.5%.

Q: And the “Difference in primary efficacy endpoint rate (oritavancin minus vancomycin)” value ([2]; MRSA MicroE)?
A: Its value is 1.8%.

Q: And the “Lesion Size Reduction ≧20% From Baseline” value ([2]; MRSA MicroE)?
A: Its value is 96.5%.

Q: What about the “Primary efficacy endpoint response rate (cessation of spread, absence of fever, no rescue antibiotics)” value ([2]; MRSA MicroE) of the same compound?
A: Its value is 88.4%.

Q: And the “Difference in investigator-assessed clinical cure rate (oritavancin minus vancomycin)” value ([2]; MRSA MicroE)?
A: The value was −2.2%.

Q: What about the “Difference in sustained clinical cure rate (oritavancin minus vancomycin)” value ([2]; MRSA MicroE) of the same compound?
A: The value was −2.8%.

Q: What about the “Investigator-Assessed Clinical Cure” value ([2]; MRSA MicroE) of the same compound?
A: Its value is 95.3%.

Q: And the “Sustained Clinical Cure” value ([2]; MRSA MicroE)?
A: Its value is 81.4%.

Q: And the “Difference in lesion size reduction ≧20% rate (oritavancin minus vancomycin)” value ([2]; MRSA MicroITT)?
A: The value was 6.4%.

Q: What about the “Difference in primary efficacy endpoint rate (oritavancin minus vancomycin)” value ([2]; MRSA MicroITT) of the same compound?
A: The value was 0.8%.

Q: And the “Lesion Size Reduction ≧20% From Baseline” value ([2]; MRSA MicroITT)?
A: The value was 90.4%.

Q: And the “Primary efficacy endpoint response rate (cessation of spread, absence of fever, no rescue antibiotics)” value ([2]; MRSA MicroITT)?
A: The value was 80.8%.

Q: What about the “Lesion Size Reduction ≧20% From Baseline” value ([2]; MRSA MicroITT, listed as oritavancin) of the same compound?
A: The value was 90.4%.

Q: And the “Difference in investigator-assessed clinical cure rate (oritavancin minus vancomycin)” value ([2]; MRSA MicroITT)?
A: Its value is −0.3%.

Q: What about the “Difference in sustained clinical cure rate (oritavancin minus vancomycin)” value ([2]; MRSA MicroITT) of the same compound?
A: The value was −0.7%.

Q: And the “Investigator-Assessed Clinical Cure” value ([2]; MRSA MicroITT)?
A: The value was 82.7%.

Q: And the “Sustained Clinical Cure” value ([2]; MRSA MicroITT)?
A: Its value is 68.3%.

Q: What about the “Difference in lesion size reduction ≧20% rate (oritavancin minus vancomycin)” value ([2]; mITT) of the same compound?
A: The value was 4.1%.

Q: What about the “Difference in primary efficacy endpoint rate (oritavancin minus vancomycin)” value ([2]; mITT) of the same compound?
A: The value was 3.4%.

Q: And the “Lesion Size Reduction ≧20% From Baseline” value ([2]; mITT)?
A: Its value is 86.9%.

Q: And the “Primary efficacy endpoint response rate (cessation of spread, absence of fever, no rescue antibiotics)” value ([2]; mITT)?
A: Its value is 82.3%.

Q: What about the “Lesion Size Reduction ≧20% From Baseline” value ([2]; mITT, listed as oritavancin) of the same compound?
A: The value was 86.9%.

Q: And the “Primary efficacy endpoint response rate (cessation of spread, absence of fever, no rescue antibiotics)” value ([2]; mITT, listed as oritavancin)?
A: Its value is 82.3%.

Q: And the “Difference in investigator-assessed clinical cure rate (oritavancin minus vancomycin)” value ([2]; mITT)?
A: The value was −0.4%.

Q: What about the “Difference in sustained clinical cure rate (oritavancin minus vancomycin)” value ([2]; mITT) of the same compound?
A: The value was −2.6%.

Q: And the “Investigator-Assessed Clinical Cure” value ([2]; mITT)?
A: Its value is 79.6%.

Q: What about the “Sustained Clinical Cure” value ([2]; mITT) of the same compound?
A: The value was 67.2%.

Q: And the “Investigator-Assessed Clinical Cure” value ([2]; mITT, listed as oritavancin)?
A: Its value is 79.6%.

Q: And the “Sustained Clinical Cure” value ([2]; mITT, listed as oritavancin)?
A: The value was 67.2%.

Q: What about the “Doubling Dilution Concentration Representing Predicted fCmax” value [3] of the same compound?
A: The value was 16 mg/L.

Q: What does the source list for CN[C@H](CC(C)C)C(=O)N[C@H]1C(=O)N[C@@H](CC(N)=O)C(=O)N[C@H]2C(=O)N[C@H]3C(=O)N[C@H](C(=O)N[C@H](C(=O)O)c4cc(O)cc(O)c4-c4cc3ccc4O)[C@H](O)c3ccc(c(Cl)c3)Oc3cc2cc(c3O[C@@H]2O[C@H](CO)[C@@H](O)[C@H](O)[C@H]2O[C@H]2C[C@](C)(N)[C@H](O)[C@H](C)O2)Oc2ccc(cc2Cl)[C@H]1O [Vancomycin, vancomycin]?
A: Treatment emergent adverse events considered by investigators as related to study drug [1]: 25.5%; Patients reported to experience at least one adverse event [1]: 50.2%; Lesion Size Reduction ≧20% From Baseline ([2]; CE): 88.7%; Primary efficacy endpoint response rate (cessation of spread, absence of fever, no rescue antibiotics) ([2]; CE): 86.1%; Investigator-Assessed Clinical Cure ([2]; CE): 93.2%; Lesion Size Reduction ≧20% From Baseline ([2]; MRSA MicroE): 89.0%; Primary efficacy endpoint response rate (cessation of spread, absence of fever, no rescue antibiotics) ([2]; MRSA MicroE): 86.6%; Investigator-Assessed Clinical Cure ([2]; MRSA MicroE): 97.6%; Lesion Size Reduction ≧20% From Baseline ([2]; MRSA MicroITT): 84.0%; Primary efficacy endpoint response rate (cessation of spread, absence of fever, no rescue antibiotics) ([2]; MRSA MicroITT): 80.0%; Lesion Size Reduction ≧20% From Baseline ([2]; MRSA MicroITT, listed as vancomycin): 84.0%; Investigator-Assessed Clinical Cure ([2]; MRSA MicroITT): 83.0%; Sustained Clinical Cure ([2]; MRSA MicroITT): 69.0%; Lesion Size Reduction ≧20% From Baseline ([2]; mITT): 82.9%; Primary efficacy endpoint response rate (cessation of spread, absence of fever, no rescue antibiotics) ([2]; mITT): 78.9%; Lesion Size Reduction ≧20% From Baseline ([2]; mITT, listed as vancomycin): 82.9%; Primary efficacy endpoint response rate (cessation of spread, absence of fever, no rescue antibiotics) ([2]; mITT, listed as vancomycin): 78.9%; Investigator-Assessed Clinical Cure ([2]; mITT): 80.0%; Sustained Clinical Cure ([2]; mITT): 69.7%; Investigator-Assessed Clinical Cure ([2]; mITT, listed as vancomycin): 80.0%; Sustained Clinical Cure ([2]; mITT, listed as vancomycin): 69.7%; Doubling Dilution Concentration Representing Predicted fCmax [3]: 16 mg/L
